Source: ChEMBL document CHEMBL1145690, “Antimalarial activity of tropical Meliaceae extracts and gedunin derivatives” (J Nat Prod, 1997)
Converted amounts (≈) assume the structure as drawn. The source made the active and inactive calls. The calls are words filed in the database; no cut-off is given here.

What was measured:
KB [1] = assay: Cytotoxicity against human KB cells assessed as viability at 20000 ng/ml; assay type: functional; conditions: read-out: Activity
Plasmodium falciparum [2] = assay: Antimalarial activity against Plasmodium falciparum W2 by [3H]hypoxanthine uptake; assay type: functional, organism-based
Plasmodium falciparum [3] = assay: Antimalarial activity against Plasmodium falciparum D6 by [3H]hypoxanthine uptake relative to gedunin; assay type: functional
Plasmodium falciparum [4] = assay: Antimalarial activity against Plasmodium falciparum D6 by [3H]hypoxanthine uptake; assay type: functional, organism-based
KB [5] = assay: Cytotoxicity against human KB cells; assay type: functional, cell-based
Plasmodium falciparum [6] = assay: Antimalarial activity against Plasmodium falciparum; assay type: functional, organism-based
Plasmodium falciparum [7] = assay: Antimalarial activity against Plasmodium falciparum FCR3TC by radioisotope micro dilution assay; assay type: functional, organism-based
Plasmodium falciparum [8] = assay: Antimalarial activity against Plasmodium falciparum at 50000 ng/ml; assay type: functional, organism-based

CC(=O)O[C@@H]1C[C@H]2C(C)(C)C(=O)C=C[C@]2(C)[C@H]2CC[C@@]3(C)[C@H](c4coc(C(C)=O)c4)OC(=O)[C@H]4O[C@]43[C@@]21C
viability at 20 µg/mL (KB [1]): 38%
IC50 (Plasmodium falciparum [2]): 0.156 µg/mL (≈ 0.297 µM)
Activity (Plasmodium falciparum [3]): 4.69%
IC50 (Plasmodium falciparum [4]): 0.832 µg/mL (≈ 1.59 µM)
IC50 (KB [5]): 10.9 µg/mL (≈ 20.8 µM)

CC(=O)O[C@@H]1C[C@H]2C(C)(C)C(=O)C=C[C@]2(C)[C@H]2CC[C@@]3(C)[C@H](c4ccoc4C(C)=O)OC(=O)[C@H]4O[C@]43[C@@]21C
viability at 20 µg/mL (KB [1]): 31%
IC50 (Plasmodium falciparum [2]): 0.039 µg/mL (≈ 0.0743 µM)
Activity (Plasmodium falciparum [3]): 29.38%
IC50 (Plasmodium falciparum [4]): 0.133 µg/mL (≈ 0.254 µM)
IC50 (KB [5]): 9.4 µg/mL (≈ 17.9 µM)

CC(=O)O[C@@H]1C[C@H]2C(C)(C)C(=O)[C@@H]3O[C@@H]3[C@]2(C)[C@H]2CC[C@@]3(C)[C@H](c4ccoc4)OC(=O)[C@H]4O[C@]43[C@@]21C
viability at 20 µg/mL (KB [1]): 81%
IC50 (Plasmodium falciparum [2]): 0.98 µg/mL (≈ 1.97 µM)
Activity (Plasmodium falciparum [3]): 0.93%
IC50 (Plasmodium falciparum [4]): 2.58 µg/mL (≈ 5.17 µM)

C[C@@H]1CC[C@H]2[C@@H](C)C(=O)O[C@@H]3O[C@@]4(C)CC[C@@H]1[C@]32OO4 [ARTEMISININ]
IC50 (Plasmodium falciparum [2]): 0.0005 µg/mL (≈ 0.00177 µM)
Activity (Plasmodium falciparum [3]): 2170%
IC50 (Plasmodium falciparum [4]): 0.0018 µg/mL (≈ 0.00638 µM)
IC50 (KB [5]): > 20 µg/mL

CCN(CC)CCCC(C)Nc1ccnc2cc(Cl)ccc12 (stereo unspecified) [CHLOROQUINE]
Activity (Plasmodium falciparum [3]): 3000%
IC50 (KB [5]): 17.4 µg/mL (≈ 54.4 µM)

CC1(C)C(=O)C=C[C@]2(C)[C@H]3CC[C@@]4(C)[C@H](c5ccoc5)OC(=O)[C@H]5O[C@]54[C@]3(C)C(=O)C[C@@H]12 [DEACETOXY-7-OXOGEDUNIN]
viability at 20 µg/mL (KB [1]): 99%
IC50 (Plasmodium falciparum [2]): > 10 µg/mL
Activity (Plasmodium falciparum [3]): <0.39%
IC50 (Plasmodium falciparum [4]): > 10 µg/mL

CC1(C)C(=O)C=C[C@]2(C)[C@H]3CC[C@@]4(C)[C@H](c5ccoc5)OC(=O)[C@H]5O[C@]54[C@]3(C)[C@H](O)C[C@@H]12 [DEACETYLGEDUNIN]
viability at 20 µg/mL (KB [1]): 39%
IC50 (Plasmodium falciparum [2]): 1.28 µg/mL (≈ 2.91 µM)
Activity (Plasmodium falciparum [3]): 1.5%
IC50 (Plasmodium falciparum [4]): 2.61 µg/mL (≈ 5.92 µM)

CC(=O)O[C@@H]1C[C@H]2C(C)(C)C(=O)CC[C@]2(C)[C@H]2CC[C@@]3(C)[C@H](c4ccoc4)OC(=O)[C@H]4O[C@]43[C@@]21C [DIHYDROGEDUNIN]
viability at 20 µg/mL (KB [1]): 71%
IC50 (Plasmodium falciparum [2]): 0.84 µg/mL (≈ 1.73 µM)
Activity (Plasmodium falciparum [3]): <0.39%
IC50 (Plasmodium falciparum [4]): > 10 µg/mL
IC50 (Plasmodium falciparum [6]): 2.63 µg/mL (≈ 5.43 µM)

CC(=O)O[C@@H]1C[C@H]2C(C)(C)C(=O)C=C[C@]2(C)[C@H]2CC[C@@]3(C)[C@H](c4ccoc4)OC(=O)[C@H]4O[C@]43[C@@]21C [GEDUNIN]
viability at 20 µg/mL (KB [1]): 32%
IC50 (Plasmodium falciparum [2]): 0.02 µg/mL (≈ 0.0414 µM)
IC50 (Plasmodium falciparum [4]): 0.039 µg/mL (≈ 0.0808 µM)
IC50 (Plasmodium falciparum [7]): 0.8 µg/mL (≈ 1.66 µM)
IC50 (Plasmodium falciparum [6]): 0.72 µg/mL (≈ 1.49 µM)
IC50 (KB [5]): 2.3 µg/mL (≈ 4.77 µM)

CC(=O)O[C@@H]1C[C@H]2C(C)(C)C(=O)CC[C@]2(C)[C@H]2CC[C@@]3(C)[C@H](C4CCOC4)OC(=O)[C@H]4O[C@]43[C@@]21C (stereo partly specified) [HEXAHYDROGEDUNIN]
viability at 20 µg/mL (KB [1]): 99%
IC50 (Plasmodium falciparum [2]): 2.13 µg/mL (≈ 4.36 µM)
Activity (Plasmodium falciparum [3]): 0.39%
IC50 (Plasmodium falciparum [4]): 10 µg/mL (≈ 20.5 µM)

CCOC(=O)[C@H]1[C@@H](OC(C)=O)[C@@H]2[C@@]3(C)C=CC(=O)[C@@](C)(C(=O)OC)C3=CC(=O)[C@@]2(C)[C@@]23O[C@@H]2C[C@@H](c2ccoc2)[C@]13C [HIRITIN]
viability at 20 µg/mL (KB [1]): 4.9%
IC50 (Plasmodium falciparum [2]): 0.096 µg/mL (≈ 0.165 µM)
Activity (Plasmodium falciparum [3]): 22.6%
IC50 (Plasmodium falciparum [4]): 0.173 µg/mL (≈ 0.298 µM)
IC50 (KB [5]): 0.5 µg/mL (≈ 0.861 µM)

CC1(C)O[C@H]2CC(=O)OC[C@]23[C@H]2CC[C@@]4(C)[C@H](c5ccoc5)OC(=O)[C@H]5O[C@]54[C@]2(C)C(=O)C[C@@H]13 [LIMONIN]
IC50 (Plasmodium falciparum [7]): > 100 µg/mL
Activity (Plasmodium falciparum [8]): inactive

OC(c1cc(C(F)(F)F)nc2c(C(F)(F)F)cccc12)C1CCCCN1 (stereo unspecified) [MEFLOQUINE]
IC50 (Plasmodium falciparum [2]): 0.0014 µg/mL (≈ 0.0037 µM)
Activity (Plasmodium falciparum [3]): 521%
IC50 (Plasmodium falciparum [4]): 0.0075 µg/mL (≈ 0.0198 µM)
IC50 (KB [5]): 3.5 µg/mL (≈ 9.25 µM)

COC(=O)C[C@H]1[C@]2(C)C3=C(C)[C@H](c4ccoc4)C[C@H]3O[C@@H]2[C@@H]2OC(=O)[C@]3(C)C=CC(=O)[C@@]1(C)[C@@H]23 [NIMBOLIDE]
IC50 (Plasmodium falciparum [6]): 1.74 µg/mL (≈ 3.73 µM)

C=C[C@H]1CN2CC[C@H]1C[C@H]2[C@H](O)c1ccnc2ccc(OC)cc12 [QUININE]
IC50 (Plasmodium falciparum [2]): 0.0349 µg/mL (≈ 0.108 µM)
Activity (Plasmodium falciparum [3]): 264%
IC50 (KB [5]): > 20 µg/mL

CC(=O)O[C@@H]1C[C@H]2C(C)(C)C(=O)C=C[C@]2(C)[C@H]2CC[C@@]3(C)[C@H](C4CCOC4)OC(=O)[C@H]4O[C@]43[C@@]21C (stereo partly specified) [TETRAHYDROGEDUNIN]
viability at 20 µg/mL (KB [1]): 81%
IC50 (Plasmodium falciparum [2]): 0.9 µg/mL (≈ 1.85 µM)
Activity (Plasmodium falciparum [3]): 1.56%
IC50 (Plasmodium falciparum [4]): 2.5 µg/mL (≈ 5.14 µM)

CC(=O)O[C@@H]1C[C@H]2C(C)(C)[C@@H](O)CC[C@]2(C)[C@H]2CC[C@@]3(C)[C@H](c4ccoc4)OC(=O)[C@H]4O[C@]43[C@@]21C [beta-DIHYDROGEDUNOL]
viability at 20 µg/mL (KB [1]): 69%
IC50 (Plasmodium falciparum [2]): 2.44 µg/mL (≈ 5.01 µM)
Activity (Plasmodium falciparum [3]): 0.93%
IC50 (Plasmodium falciparum [4]): 4.21 µg/mL (≈ 8.65 µM)
